≈ marks a conversion by molar mass, not a printed value.
Columns and labels:
Mtb-FtsZ [1] = target: T1, Mtb-FtsZ (Mycobacterium tuberculosis, UniProt P9WN95); assay: Transmission electron microscopy; assay type: biochemical; conditions: Mtb-FtsZ 5 μM, GTP 25 μM
Mtb-FtsZ [2] = target: T1, Mtb-FtsZ; assay: Mtb-FtsZ polymerization inhibitory assay; assay type: biochemical; conditions: light scattering, Mtb-FtsZ 15 μM, GTP 100 μM
Cytotoxicity, MTT assay = assay type: cell-based; conditions: African green monkey, Vero cells
Mtb H37Rv = assay: MIC determination by microplate Alamar Blue assay; assay type: cell-based; conditions: Mycobacterium tuberculosis, read-out: MIC Mtb H37Rv

T1 sequence (P9WN95 whole entry): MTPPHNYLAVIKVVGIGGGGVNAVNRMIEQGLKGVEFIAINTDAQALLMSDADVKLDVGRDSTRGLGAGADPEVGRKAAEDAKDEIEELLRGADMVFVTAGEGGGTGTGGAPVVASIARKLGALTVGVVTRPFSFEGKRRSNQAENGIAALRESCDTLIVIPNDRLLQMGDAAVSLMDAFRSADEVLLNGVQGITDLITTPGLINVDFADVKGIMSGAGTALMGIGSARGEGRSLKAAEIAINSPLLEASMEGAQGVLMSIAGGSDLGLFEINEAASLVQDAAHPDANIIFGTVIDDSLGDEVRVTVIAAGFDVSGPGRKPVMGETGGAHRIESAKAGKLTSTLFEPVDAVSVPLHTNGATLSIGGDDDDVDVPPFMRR

## CCCCOC(=O)Nc1cc2nc(C3CCCCC3)[nH]c2cc1Oc1ccc(F)cc1 [Compound 5a, 5-Butoxycarbonylamino-2-cyclohexyl-6-(4-fluorophenoxy)-1H-benzo[d]imidazole]
Mtb-FtsZ [1]; 5a 40 μM
  Effect on FtsZ polymers in TEM: the length, density and aggregation was visibly reduced
Mtb-FtsZ [1]; 5a 80 μM
  Effect on FtsZ polymers in TEM: very short and dispersed FtsZ polymers were observed
Mtb-FtsZ [2]
  Inhibition of FtsZ polymerization: inhibited FtsZ polymerization in a dose-dependent manner

## O=C(Nc1cc2nc(C3CCCCC3)[nH]c2cc1Oc1ccc(F)cc1)c1ccc(F)cc1F [Compound 5d, 2-Cyclohexyl-5-(2,4-difluorobenzamido)-6-(4-fluorophenoxy)-1H-benzo[d]imidazole]
Mtb-FtsZ [2]
  Inhibition of FtsZ polymerization: inhibited FtsZ polymerization in a dose-dependent manner

## Cc1ccc(C(=O)Nc2cc3nc(C4CCCCC4)[nH]c3cc2Sc2ccccc2)cc1 [Compound 5f, 2-Cyclohexyl-5-(4-methxylbenzamido)-6-(phenylthio)-1H-benzo[d]imidazole]
Cytotoxicity, MTT assay
  IC50 at 3 days: > 200 µM

## CCCCSc1cc2[nH]c(C3CCCCC3)nc2cc1NC(=O)c1ccc(C)cc1 [Compound 5i, 6-(Butylthio)-5-(4-metylbenzamido)-2-cyclohexyl-1H-benzo[d]imidazole]
Mtb H37Rv
  MIC: 1.25 µg/mL (≈ 2.96 µM)

From paper PMC4045703 (Bioorganic & medicinal chemistry, 2014)
